Patent US20100040544A1, “METHOD FOR MANAGING PATIENTS WITH CANCER” (priority 2006, published 2010)

Assay: T1 relaxation in human full blood
Type: physicochemical
Conditions: in human full blood at 37° C.

Which T1 relaxation does the source give for `CC(=O)[13C](=O)O` [^13C1-pyruvate] here?
Its T1 relaxation is “about 42 s”.
